Results as given in patent publication US9993462B2, “Hydantoin derivative-containing pharmaceutical composition” (Chugai Seiyaku Kabushiki Kaisha, priority 2014, dated 2018).

Assays:
normal rats = experiment: Bone mineral density after four weeks of repeated intravenous administration to normal rats; assay type: in vivo, rat; settings: intravenous once a day for four weeks
Description: Female RccHan: WIST rats obtained from Japan Laboratory Animals Inc. were acclimated for one week or longer under standard laboratory conditions of 20° C. to 26° C. and 30% to 70% humidity, and then used in experiments. The rats had free access to tap water and a standard rodent diet (CR-LPF) (Oriental Yeast Co., Ltd.).
Intravenous catheter was placed into eight-week old rats. The catheter was inserted from the femoral vein in the inguinal region, and the tip was extended into the caudal vena cava for placement at that site. The body weight was determined in the first week post-surgery, and the rats were divided into groups of ten animals per group so that the average body weight of each group would be even. Two days after group division, all rats were intravenously administered once a day repeatedly for four weeks. Administration was carried out by connecting an infusion pump (MEDFUSION SYRINGE INFUSION PUMP Model 2001) to the indwelling catheter.
The solvent (vehicle) was administered intravenously to the Vehicle-Control group. To the Compound 7-20 mg/kg, −30 mg/kg, and −50 mg/kg groups, Compound 7 dissolved in the vehicle was administered intravenously at a dose of 20 mg/kg, 30 mg/kg, and 50 mg/kg, respectively. For all groups, the administration volume was 5 mL/kg and the administration speed was 5 mL/kg/minute. The composition of the vehicle used was 5% dimethyl sulfoxide (Wako Pure Chemical Industries, Ltd.), 25% propylene glycol (Kanto Chemical Co., Inc.)/20% ethanol (Junsei Chemical Co., Ltd.)/15% hydroxypropyl-β-cyclodextrin (Nihon Shokuhin Kako Co., Ltd)/300 mM glycine (Wako Pure Chemical Industries, Ltd.)/192 mM sodium hydroxide (Wako Pure Chemical Industries, Ltd.)/physiological saline solution (Otsuka Pharmaceutical Factory, Inc.). Rats were euthanized under anesthesia the day after final administration by collecting blood from the abdominal aorta, and then autopsy was performed to collect the lumbar spine, lower leg bone, and mandible. The lumbar spine, lower leg bone, and mandible were stored in 70% ethanol. The bone mineral densities of the lumbar spine (second to fourth lumbar vertebrae), lower leg bone, and mandible were determined using a dual X-ray bone mineral scanner (DCS-600EX, Aloka).
The data are shown as mean value+standard error (SE). SAS preclinical package ver. 5.00 (SAS Institute Japan) was used to perform the following statistical analyses. The significance level was set to 5% on both sides. With regard to the lumbar spine, lower leg bone, and mandible bone mineral density, parametric Dunnett multiple comparison (*P<0.05) was performed for the three dosage groups of Compound 7 with the Vehicle-Control group as control.

[1] = test system: rabbit articular chondrocytes; experiment: Suppression of terminal differentiation of rabbit articular chondrocytes (alkaline phosphatase and alizarin red staining); assay type: cell-based; settings: BMP-2 100 ng/mL, Compound 7 10^−7 to 10^−5 mol/L, PTH(1-34) 10^−10 to 10^−7 mol/L
Description: NZW rabbits (4-week old, Oriental Yeast Co., Ltd.) were euthanized, and then the articular cartilage of the lower leg bone was collected, and transferred to a 50-mL test tube (Nippon Becton Dickinson Company). PBS (Nacalai Tesque, Inc.) containing 1% trypsin (Wako Pure Chemical Industries, Ltd.) was added to this, and the soft tissue was digested at 37° C. for one hour. This was followed by centrifugation at 1,200 rpm for five minutes, then supernatant was removed and PBS(−) was added to suspend the cartilage tissue. This was centrifuged at 1,200 rpm for five minutes, followed by removal of the supernatant, and washed three times by suspending in PBS(−). This was centrifuged at 1,200 rpm for five minutes, and then the cell pellet was digested by treatment with DMEM (Life Technologies Japan, Ltd.) containing 0.2% Type II collagenase (CLS-2, Worthington Biochemical Corp.) at 37° C. for three hours. Fetal bovine serum (Life Technologies Japan, Ltd.) was added at 10% v/v to stop the reaction, and this was vigorously pipetted using a 10-mL pipette (Nippon Becton Dickinson Company) to isolate the chondrocytes. This was centrifuged at 1,200 rpm for five minutes, followed by removal of the supernatant, and washed three times by suspending in 10% FCS-containing DMEM, and the chondrocytes were seeded at 1×10^4 cells/well on an I-type collagen-coated 96-well culture plate (AGC TECHNO GLASS CO., LTD.). Medium exchange was performed three times a week; and after the cells reached confluency, they were cultured in DMEM containing 100 μg/mL L-ascorbic acid phosphate magnesium salt n-hydrate (Wako Pure Chemical Industries, Ltd.), 10 mmol/L β-glycerophosphate pentahydrate (Wako Pure Chemical Industries, Ltd.) and 10% FCS. The following conditions were used to culture the cells, and alkaline phosphatase staining (cultured for 14 days) and alizarin red staining (cultured for 21 days) were performed to evaluate terminal differentiation of chondrocytes.
Alkaline phosphatase staining was performed by discarding the medium, then washing the chondrocytes once with 200 mmol/L Tris-HCl pH8.2 buffer, staining the cells according to the protocol supplied with the alkaline phosphatase staining kit (Vector Red Alkaline Phosphatase Substrate Kit I, Vector Laboratories, Inc.), and taking photographs with an inverted microscope (Nikon Corporation) (4× objective).
Alizarin red staining was performed by discarding the medium, then washing the chondrocytes twice with PBS, fixing the cells using 100% ethanol (Wako Pure Chemical Industries Ltd.) for 15 minutes, discarding the ethanol, and then staining with 1% alizarin red S (Wako Pure Chemical Industries Ltd.) for 15 minutes, followed by washing with distilled water; and photographs were taken with an inverted microscope.

With Cc1cc(N2C(=O)NC(=O)C2(C)C)cc(C)c1CCS(=O)(=O)N1CCC2(CC1)N=C(c1ccc(OC(F)(F)F)cc1)NC2=O [Compound 7, 1-(3,5-dimethyl-4-(2-((4-oxo-2-(4-(trifluoromethoxy)phenyl)-1,3,8-triazaspiro[4.5]deca-1-en-8-yl)sulfonyl)ethyl)phenyl)-5,5-dimethylimidazolidine-2,4-dione] the “percentage of increase in the lumbar spine bone mineral density with respect to the Vehicle-Control group” value (normal rats; 20 mg/kg) was 16%, the “percentage of increase of bone mineral density in the lower leg bone with respect to the Vehicle-Control group” value (normal rats; 20 mg/kg) was 7% and the “percentage of increase in the lumbar spine bone mineral density with respect to the Vehicle-Control group” value (normal rats; 30 mg/kg) was 21%. For the same molecule, the “percentage of increase of bone mineral density in the lower leg bone with respect to the Vehicle-Control group” value (normal rats; 30 mg/kg) was 16%, the “percentage of increase of mandible bone mineral density relative to the Vehicle-Control group” value (normal rats; 30 mg/kg) was 7% and the “percentage of increase in the lumbar spine bone mineral density with respect to the Vehicle-Control group” value (normal rats; 50 mg/kg) was 25%. The “percentage of increase of bone mineral density in the lower leg bone with respect to the Vehicle-Control group” value (normal rats; 50 mg/kg) was 19%, the “alkaline phosphatase activity (alkaline phosphatase staining)” value ([1]; cultured for 14 days) was “suppressed alkaline phosphatase activity in a concentration-dependent manner” and the “alizarin red staining property (calcification)” value ([1]; cultured for 21 days) was “suppressed the alizarin staining property in a concentration-dependent manner”.
